From patent US20250032476A1, “ALPHA-2A ADRENERGIC RECEPTOR MODULATORS AND USES THEREOF” (The Regents of the University of California, priority 2021, published 2025)
“And” between values parts separate entries of the source, which are not always exact repeats. Equal entries are not always repeated. Where two headings read alike, the source gives them in different places.

Tests used:
human α2AAR [1] = target: T1, human α2AAR (Homo sapiens (Human), UniProt P08913); assay: Radioligand competition binding to human α2AAR (HEK293T membranes, [3H]RX82,1002); conditions: human α2AAR
T1 sequence (P08913 whole entry): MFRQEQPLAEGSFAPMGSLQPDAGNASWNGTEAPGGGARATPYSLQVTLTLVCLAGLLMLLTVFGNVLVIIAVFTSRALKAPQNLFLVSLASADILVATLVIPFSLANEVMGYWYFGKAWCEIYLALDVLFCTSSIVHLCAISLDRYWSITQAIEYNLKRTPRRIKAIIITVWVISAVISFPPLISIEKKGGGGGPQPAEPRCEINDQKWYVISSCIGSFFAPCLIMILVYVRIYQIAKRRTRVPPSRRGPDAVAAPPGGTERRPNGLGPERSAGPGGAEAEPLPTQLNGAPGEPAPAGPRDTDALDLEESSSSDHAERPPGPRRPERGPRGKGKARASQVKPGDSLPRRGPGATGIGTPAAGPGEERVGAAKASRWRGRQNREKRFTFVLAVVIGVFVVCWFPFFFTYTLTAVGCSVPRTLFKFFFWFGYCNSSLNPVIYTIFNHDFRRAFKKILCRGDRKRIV

human α2AAR [2] = target: T1, human α2AAR; assay: Gαi G protein activation, BRET biosensor assay in HEK293T cells; conditions: for Emax: HEK-293T
Procedure: (§5) Bioluminescense resonance energy transfer. G protein mediated activation of human α2AAR and D2long was monitored with Gαi1-RLucII (71, 72) together with Gβ1 and Gγ1-GFP10. Arrestin recruitment was performed by enhanced bystander BRET using CAAX-rGFP and β-arrestin-2-RLucII as biosensors (all biosensors are provided from M. Bouvier, Université de Montréal, Canada) (71, 73) in the presence of GRK2 as described (66, 74). In brief, HEK293T cells were transfected with a total amount of 3.3 μg DNA per 10^6 cells using linear polyethyleneimine (PEI, Polysciences, 3:1 PEI:DNA ratio) and transferred into 96-well half-area plates (Greiner, Frickenhausen, Germany) at a density of 10,000 cells per well and incubated for 48 hrs. Medium was exchanged with PBS (Hank's balanced salt solution) and cells were stimulated with ligands at 37° C. for 10 min for Gαi stimulation or arrestin recruitment, respectively.

human α2AAR [3] = target: T1, human α2AAR; assay: DiscoverX HitHunter cAMP G-protein activation assay; conditions: read-out: Gi/o Emax
Procedure: DiscoverX HitHunter cAMP G-protein activation assay. […] Freezer stock cAMP Hunter cell lines were expanded, then seeded in a total volume of 20 uL into white walled, 384-well microplates and incubated at 37° C. prior to testing. For agonist determination, cells were incubated with compound samples in the presence of EC80 forskolin to induce response. Media was aspirated from cells and replaced with 15 uL 2:1 HBSS/10 mM Hepes: cAMP XS+Ab reagent. Intermediate dilution of sample stocks was performed to generate 4× sample in assay buffer containing 4× EC80 forskolin. […] Finally assay vehicle concentration was 1%. After sample incubation assay signal was generated through incubation with 20 uL cAMP XS+ED/CL lysis cocktail for one hour followed by incubation with 20 uL cAMP XS+EA reagent for three hours at room temperature. Microplates were read following signal generation with a PerkinElmer Envision Instrument for chemiluminescent signal detection. Compound activity was analyzed using CBIS data analysis suite. For Gi agonist mode, percentage activity is calculated using the following formula: % Activity=100%×(1−(mean RLU of test sample−mean RLU of MAX control)/(mean RLU of vehicle control−mean RLU of MAX control)). […] Each measurement was done in duplicate.
DiscoverX HitHunter cAMP G-protein activation assay. […] Freezer stock cAMP Hunter cell lines were expanded, then seeded in a total volume of 20 μL into white walled, 384-well microplates and incubated at 37° C. prior to testing. For agonist determination, cells were incubated with compound samples in the presence of EC50 forskolin to induce response. Media was aspirated from cells and replaced with 15 μL 2:1 HBSS/10 mM Hepes: cAMP XS+Ab reagent. Intermediate dilution of sample stocks was performed to generate 4× sample in assay buffer containing 4× EC80 forskolin. […] Finally assay vehicle concentration was 1%. After sample incubation assay signal was generated through incubation with 20 μL cAMP XS+ED/CL lysis cocktail for one hour followed by incubation with 20 μL cAMP XS+EA reagent for three hours at room temperature. Microplates were read following signal generation with a PerkinElmer Envision Instrument for chemiluminescent signal detection. Compound activity was analyzed using CBIS data analysis suite. For Gi agonist mode, percentage activity is calculated using the following formula: % Activity=100%×(1−(mean RLU of test sample−mean RLU of MAX control)/(mean RLU of vehicle control−mean RLU of MAX control)). […] Each measurement was done in duplicate.

human α2AAR [4] = target: T1, human α2AAR; assay: β-arrestin-2 recruitment, BRET biosensor assay in HEK293T cells; conditions: HEK-293T
Procedure: as §5

[5] = target: T2, ALPHA-2A ADRENERGIC RECEPTOR (Homo sapiens (Human), UniProt P08913); assay: Gi recruitment (G protein); assay type: cell-based; conditions: for functional classification (agonist / weak agonist): Table 6, result in words
T2 sequence (P08913 whole entry): as above

[6] = Pharmacokinetics in mice (plasma, brain, CSF); assay type: in vivo; conditions: I.P. 10 mg/kg
Procedure: Pharmacokinetics. Pharmacokinetic experiments were performed by Bienta (Enamine Biology Services) in accordance with Enamine pharmacokinetic study protocols and Institutional Animal Care and Use Guidelines (protocol number 1-2/2020). […] In each compound study, nine time points (5, 15, 30, 60, 120, 240, 360, 480 and 1440 min) were collected, each of the time point treatment group included 3 animals. There was also a control group of one animal. In the ‘9087, ‘7075, ‘4622 studies, male C57BL/6N mice were used, for PS75 CD-1 mice, and for ‘2998 male Balb/cAnN mice. For all compound studies the animals were randomly assigned to the treatment groups before the pharmacokinetic study; all animals were fasted for 4 h before dosing. For injections, ‘9087 was dissolved in Captisol—water (40%:60%, w/v), ‘4622 was dissolved in a 20% Kolliphor HS—physiological saline solution, and ‘7075, PS75, and ‘2998 were dissolved in a 20% 2-HPBCD—aqueous solution. The batches of working formulations were prepared 10 minutes prior to the in vivo study.
(§1) Mice were injected i.p. with 2,2,2-tribromoethanol at 150 mg/kg prior to drawing CSF and blood. CSF was collected under a stereomicroscope from cisterna magna using 1 mL syringes. Blood collection was performed from the orbital sinus in microtainers containing K3EDTA. Animals were sacrificed by cervical dislocation after the blood samples collection. Blood samples were centrifuged 10 min at 3000 rpm. Brain samples (right lobe) were weighed and transferred into 1.5 ml tubes. All samples were immediately processed, flash-frozen and stored at −70° C. until subsequent analysis.
Plasma samples (40 μL) were mixed with 200 μL of internal standard (IS) solution. After mixing by pipetting and centrifuging for 4 min at 6000 rpm, 4 μL of each supernatant was injected into the LC-MS/MS system. Solutions of internal standards were used to quantify compounds in the plasma samples. […] After this, the samples were centrifuged for 4 min at 14,000 rpm, and supernatant was injected into LC-MS/MS system. CSF samples (2 μL) were mixed with 40 μL of an internal stock solution. After mixing by pipetting and centrifuging for 4 min at 6,000 rpm, 5 μL of each supernatant was injected into LC-MS/MS system.
(§2) Analyses of plasma, brain and CSF samples were conducted at Enamine/Bienta. The concentrations of compounds in plasma and brain samples were determined using high performance liquid chromatography/tandem mass spectrometry (HPLC-MS/MS). Data acquisition and system control was performed using Analyst 1.5.2 software (AB Sciex, Canada). […] Pharmacokinetic data analysis was performed using noncompartmental, bolus injection or extravascular input analysis models in WinNonlin 5.2 (PharSight).
as §1, with “mL” for “ml”
as §2
Additional pharmacokinetic experiments were performed by Sai Life Sciences (Hyderabad, India) in accordance with the Sai Study Protocol SAIDMPK/PK-22-04-0340. […] Testing was done in C57BL/6 mice.

[7] = target: T2, ALPHA-2A ADRENERGIC RECEPTOR; assay: Arrestin recruitment; assay type: cell-based; conditions: Tables 7-9
α2AAR F427^7.39 mutant = α2AAR F427^7.39 mutant (Homo sapiens (Human), UniProt P08913, F427A); assay: Gi activation (BRET) at α2AAR F427^7.39 mutant; assay type: cell-based
Sequence of α2AAR F427^7.39 mutant (P08913 whole entry F427A): as the sequence (P08913 whole entry) above, with F427A counted along it
Procedure: (§3) Investigating the sensitivity of selected ligands to the receptor mutants α2AAR-D128^3.32A, α2AAR-D128^3.32T, α2AAR-D128^3.32L, α2AAR-S215^5.42A, α2AAR-Y409^6.55A, α2AAR-Y409^6.55T, α2AAR-Y409^6.55F, α2AAR-F427^7.39F, α2AAR-Y431^7.43A, and α2AAR-Y431^7.43F was determined by monitored G protein stimulation as described above transfecting the appropriate receptor together with Gαi1-RLucII and Gβ1/Gγ1-GFP10. […] Three to ten experiments were done in duplicate.
(§4) The sensitivity of selected ligands to the receptor mutants α2AAR-D128^3.32A, α2AAR-D128^3.32T, α2AAR-D128^3.32L, α2AAR-S215^5.42A, α2AAR-Y409^6.55A, α2AAR-Y409^6.55T, α2AAR-Y409^6.55F, α2AAR-F427^7.39F, α2AAR-Y431^7.43A, and α2AAR-Y431^7.43F was monitored by G protein activation as described above transfecting the appropriate receptor together with Gαi1-RLucII and Gβ1/Gγ2-GFP10. […] Similarly, the effect of the α2AAR-D128^3.32A, α2AAR-S215^5.42A, α2AAR-Y409^6.55A, α2AAR-Y409^6.55F, α2AAR-F427^7.39F, α2AAR-Y431^7.43A, and α2AAR-Y431^7.43F mutations on arrestin recruitment was evaluated as described above transfecting the appropriate receptor together with CAAX-rGFP, GRK2 and β-arrestin-2-RLucII. Data was analyzed as ligand induced changes in BRET compared to vehicle (deltaBRET). Three to seven experiments were done in duplicate.

CFA mice = assay: Complete Freund's Adjuvant (CFA) inflammatory pain model, Hargreaves test; conditions: mouse, in vivo
Procedure: The CFA model of chronic inflammation was induced as described previously (96). Briefly, CFA (Sigma) was diluted 1:1 with saline and vortexed for 30 minutes. When fully suspended, we injected 20 μL of CFA into one hindpaw. Heat thresholds were measured before the injection (baseline) and 3 days after using the Hargreaves test.
The CFA model of chronic inflammation was induced as described previously (100). Briefly, CFA (Sigma) was diluted 1:1 with saline and vortexed for 30 minutes. When fully suspended, we injected 20 μL of CFA into one hindpaw. Heat thresholds were measured before the injection (baseline) and 3 days after using the Hargreaves test.

mice = assay: Rotarod motor test (motor impairment and sedation); assay type: in vivo; conditions: equi-analgesic doses (DEX: higher doses)
SNI mice = assay: Spared-nerve injury (SNI) model of neuropathic pain, von Frey mechanical thresholds; assay type: in vivo
Procedure: Spared-nerve injury (SNI) model of neuropathic pain. Under isoflurane anesthesia, two of the three branches of the sciatic nerve were ligated and transected distally, leaving the sural nerve intact. Behavior was tested 7 to 14 days after injury and in situ hybridization was performed one week post-injury.

α2AAR-Y431^7.43A/F = α2AAR-Y431^7.43A/F (Homo sapiens, UniProt P08913, Y431A); assay: Gi activation (BRET) at α2AAR Y431^7.43 mutants; assay type: cell-based
Procedure: as §3, §4

[8] = mean ± SEM (Table 3), read-out: Ki
[9] = Gi recruitment, Table 6, read-out: EC50
[10] = Gi recruitment, Table 6, read-out: Emax (%)
[11] = Gi EC50 ± SE, BRET biosensor, human α2AAR (Table 3)
[12] = Gi recruitment, Tables 7-9, read-out: G protein Emax (%)

c1ccc(Nc2cncc3ccccc23)cc1
Ki (human α2AAR [1]; [8]): > 10000 nM | Emax (human α2AAR [2]; read-out: Gi Emax @ 0.1 mM): 57%

Nc1ccc(Nc2cncc3ccccc23)cc1
Ki (human α2AAR [1]; [8]): 4600 ± 2100 nM | Emax (human α2AAR [2]; read-out: Gi Emax ± SEM): < 5%

c1ccc2c(Oc3ccncc3)cccc2c1
Ki (human α2AAR [1]; [8]): 1800 ± 730 nM | Emax (human α2AAR [2]; read-out: Gi Emax @ 0.1 mM): 43%

c1ccc2c(Nc3ccncc3)ncnc2c1
Ki (human α2AAR [1]; [8]): 6600 ± 1800 nM | Emax (human α2AAR [2]; read-out: Gi Emax ± SEM): < 5%

Brc1c(NC2=NCCN2)ccc2nccnc12 [Brimonidine, brimonidine, reference compound]
Emax (human α2AAR [3]): 107 ± 7%

Clc1cccc(Cl)c1N=C1NCCN1 [CLON, clonidine, reference compound]
Emax (human α2AAR [2]; read-out: Gαi Emax): 115 ± 4% | Emax (human α2AAR [4]; read-out: β-arrestin-2 Emax): 41 ± 3%

Clc1ncc2ccccc2c1Nc1ccncc1 [Compound 1718, 3-chloro-N-(pyridin-4-yl)isoquinolin-4-amine]
Ki (human α2AAR [1]; [8]): 22 ± 6.7 nM | functional classification (agonist / weak agonist) ([5]; Gi recruitment): agonist | EC50 [5, 9]: 8 nM | Emax [5, 10]: 45% | EC50 (human α2AAR [2]; [11]): 14 nM | Emax (human α2AAR [2]; read-out: Gi Emax ± SEM): 47% | Emax (human α2AAR [4]; read-out: β-Arr-2 Emax): < 5%

C1=C(c2ccc3c(c2)CC3)CNCC1 [Compound 4622, 5-(Bicyclo[4.2.0]octa-1,3,5-trien-3-yl)-1,2,3,6-tetrahydropyridine]
half-life ([6]; C57BL/6N ('9087, '7075, '4622), CD-1 (PS75), mouse, CSF, ip, read-out: T ½ CSF (converted)): 14.5 h | AUC Brain [6]: 1160000 ng·min/mL | AUC CSF [6]: 18400 ng·min/mL | Cmax Brain [6]: 16200 ng/mL | Cmax CSF [6]: 44.2 ng/mL | half-life ([6]; mouse, brain, ip, read-out: T ½ Brain (converted)): 0.88 h | AUC ([6]; mouse, plasma, ip): 567 ng·h/mL | Cmax ([6]; mouse, plasma, ip): 620 ng/mL | half-life ([6]; mouse, plasma, ip, read-out: T ½ Plasma (converted)): 1.01 h | Emax [7]: < 5% | Gi activity at F427^7.39 substitution (α2AAR F427^7.39 mutant): eliminated | Ki (human α2AAR [1]; mean ± s.e.m., read-out: Ki for α2AAR): 12 ± 3.6 nM | EC50 [5]: 45 nM | Emax [5, 12]: 76% | EC50 (human α2AAR [2]; Gαi EC50, BRET biosensor, HEK293T, human α2AAR): 9.7 ± 2.4 nM | Emax (human α2AAR [2]; read-out: Gαi Emax): 74 ± 4% | Thermal latencies / anti-hyperalgesic effect in CFA model (CFA mice): exhibited anti-hyperalgesic effects | Motor impairment / sedation in rotarod test (mice): slight motor impairment | Effect of atipamezole on the agonist's effect in SNI mice (SNI mice; atipamezole 2 mg/kg, 15 minutes prior): reversed by atipamezole | Mechanical thresholds / anti-allodynic effect in SNI mice (SNI mice; systemic injection): exhibited anti-allodynic effects | Emax (human α2AAR [4]; read-out: β-arrestin-2 Emax): < 5%

c1cc(Nc2ccncc2)c2sccc2c1 [Compound 4914]
Ki (human α2AAR [1]; [8]): 7.2 ± 1 nM | EC50 [5, 9]: 6.8 nM | Emax [5, 10]: 76% | EC50 (human α2AAR [2]; [11]): 9.1 nM | Emax (human α2AAR [2]; read-out: Gi Emax ± SEM): 77% | Emax (human α2AAR [4]; read-out: β-Arr-2 Emax): < 5%

Cc1cccc([C@H](C)c2cnc[nH]2)c1C [DEX, dexmedetomidine, reference compound]
Emax (human α2AAR [2]; read-out: Gαi Emax): 105 ± 4% | Emax (human α2AAR [3]): 76 ± 3% | Motor impairment / sedation in rotarod test (mice): significant impairment and complete sedation at higher doses | Emax (human α2AAR [4]; read-out: β-arrestin-2 Emax): 60 ± 3%

COc1ccc2cccc(Nc3ccncc3)c2c1 [PS71]
Ki (human α2AAR [1]; [8]): 240 ± 120 nM | functional classification (agonist / weak agonist) ([5]; Gi recruitment): agonist | EC50 [5, 9]: 89 nM | Fold reduced Gi activity compared to ‘5879 (human α2AAR [2]): 15 fold and 16 fold | EC50 (human α2AAR [2]; [11]): 100 nM | Emax (human α2AAR [2]; read-out: Gi Emax ± SEM): 85% | Emax (human α2AAR [4]; read-out: β-Arr-2 Emax): < 5%

O=C1CCc2c(cccc2Nc2ccncc2)N1 [PS84]
Ki (human α2AAR [1]; [8]): 500 ± 87 nM | functional classification (agonist / weak agonist) ([5]; Gi recruitment): agonist | EC50 [5, 9]: 450 nM | EC50 (human α2AAR [2]; [11]): 840 nM | Emax (human α2AAR [2]; read-out: Gi Emax ± SEM): 37%

O=C1NCCc2c(Nc3ccncc3)cccc21 [PS86]
Ki (human α2AAR [1]; [8]): 1200 ± 560 nM | functional classification (agonist / weak agonist) ([5]; Gi recruitment): agonist | EC50 [5, 9]: 3200 nM | EC50 (human α2AAR [2]; [11]): 3400 nM | Emax (human α2AAR [2]; read-out: Gi Emax ± SEM): 91%

NC1CCc2ccc(C3=CCCNC3)cc21 (stereo not drawn) [TP92]
Emax [7]: < 5% | G protein effect at 100 μM ([5]; at 100 μM): 18% at 100 μM

Nc1ccnc(Cc2ccc(F)cc2)c1 [TP94, 2-(4-Fluorobenzyl)pyridin-4-amine]
Emax [7]: < 10% | EC50 ([5]; Gi recruitment, Tables 7-9, read-out: G protein EC50): 5000 nM | Emax [5, 12]: 19%

CC1=CCc2cc(C3=CCCNC3)ccc21 [TP97, 5-(3-Methyl-1H-inden-6-yl)-1,2,3,6-tetrahydropyridine]
Emax [7]: < 5% | Emax [5, 12]: < 10%

C=C(c1ccc(C(F)(F)F)cc1)c1cc(N)ccn1 [TP101, 2-(1-(4-(Trifluoromethyl)phenyl)vinyl)pyridin-4-amine]
Emax [7]: < 5% | Emax [5, 12]: < 5%

C=C1CCc2cc(C3=CCCNC3)ccc21 [TP105, 5-(1-Methylene-2,3-dihydro-1H-inden-5-yl)-1,2,3,6-tetrahydropyridine]
Emax [7]: < 5% | Emax [5, 12]: < 5%

NC[C@H](O)c1ccc(O)c(O)c1 [norepinephrine]
Gi signaling at Y431^7.43A (α2AAR-Y431^7.43A/F): essentially eliminated
